Reference: patent US20150274719A1, “AMINO-SUBSTITUTED IMIDAZO[1,2-A]PYRIDINECARBOXAMIDES AND THEIR USE” (BAYER PHARMA AKTIENGESELLSCHAFT, priority 2012, published 2015)
Structures can show the parent of a compound that is named as a salt.

What follows are compounds tested against T1, recombinant guanylate cyclase reporter cell line (Rattus norvegicus, UniProt P19686+P20595) (assay: Action on recombinant guanylate cyclase reporter cell line). Conditions: in some cases mean values from individual determinations.
T1 construct: expressed in transfected cells; host or cells: recombinant reporter cell line
T1 sequence (P19686 1-690): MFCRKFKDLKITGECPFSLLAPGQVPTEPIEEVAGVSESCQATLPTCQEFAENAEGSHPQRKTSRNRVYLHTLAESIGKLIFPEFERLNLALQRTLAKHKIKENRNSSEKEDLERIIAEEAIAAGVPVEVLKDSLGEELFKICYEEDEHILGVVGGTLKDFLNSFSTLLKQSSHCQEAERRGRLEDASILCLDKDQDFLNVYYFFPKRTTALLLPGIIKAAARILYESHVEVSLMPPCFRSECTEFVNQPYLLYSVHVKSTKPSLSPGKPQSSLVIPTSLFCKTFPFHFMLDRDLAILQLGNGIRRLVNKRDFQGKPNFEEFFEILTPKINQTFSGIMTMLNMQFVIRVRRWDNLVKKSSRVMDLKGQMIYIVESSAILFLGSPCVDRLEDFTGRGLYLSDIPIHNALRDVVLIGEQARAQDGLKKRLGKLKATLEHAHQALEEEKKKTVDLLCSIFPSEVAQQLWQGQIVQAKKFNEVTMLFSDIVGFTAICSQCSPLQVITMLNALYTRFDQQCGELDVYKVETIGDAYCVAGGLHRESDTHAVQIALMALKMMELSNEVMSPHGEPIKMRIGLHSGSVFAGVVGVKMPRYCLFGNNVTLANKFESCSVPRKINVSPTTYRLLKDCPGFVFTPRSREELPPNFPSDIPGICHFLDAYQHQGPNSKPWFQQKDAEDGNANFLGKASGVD
T1 sequence (P20595 1-619): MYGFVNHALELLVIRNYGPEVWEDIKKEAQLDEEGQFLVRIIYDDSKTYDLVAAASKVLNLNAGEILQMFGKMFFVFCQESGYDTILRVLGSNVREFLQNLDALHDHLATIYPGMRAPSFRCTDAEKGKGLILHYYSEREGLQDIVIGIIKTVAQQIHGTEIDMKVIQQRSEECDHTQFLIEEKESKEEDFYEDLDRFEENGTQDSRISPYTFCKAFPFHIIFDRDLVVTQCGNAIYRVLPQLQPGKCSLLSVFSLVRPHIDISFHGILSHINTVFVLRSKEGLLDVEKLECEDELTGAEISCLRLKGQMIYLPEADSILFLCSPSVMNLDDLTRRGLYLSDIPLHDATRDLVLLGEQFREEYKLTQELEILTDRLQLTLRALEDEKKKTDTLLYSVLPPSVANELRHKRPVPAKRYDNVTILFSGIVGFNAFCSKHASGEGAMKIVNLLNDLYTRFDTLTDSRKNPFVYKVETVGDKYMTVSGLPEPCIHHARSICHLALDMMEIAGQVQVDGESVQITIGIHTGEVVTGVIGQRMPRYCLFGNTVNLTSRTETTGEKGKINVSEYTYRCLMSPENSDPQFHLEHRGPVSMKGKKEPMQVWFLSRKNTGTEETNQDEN
Type: cell-based
Outline: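 Compounds are tested on whole cells carrying a guanylate cyclase reporter construct. The lowest concentration giving an effect is recorded as the MEC.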
Cc1nc2c(OCc3c(F)cccc3F)cccn2c1C(=O)NC1CCNc2ccccc21 (racemic) [Example 50, rac-8-[(2,6-Difluorobenzyl)oxy]-2-methyl-N-(1,2,3,4-tetrahydroquinolin-4-yl)imidazo[1,2-a]-pyridine-3-carboxamide] was tested, and the “MEC (minimal effective concentration)” value was 0.03 µM. With CCCC(C)(N)CNC(=O)c1cnc2c(OCc3c(F)cccc3F)cccn12 (stereo not drawn) [Example 354, ent-N-(2-amino-2-methylpentyl)-8-[(2,6-difluorobenzyl)oxy]imidazo[1,2-a]pyridine-3-carboxamide] the “MEC (minimal effective concentration)” value was 3.00 µM. In the case of Cc1nc2c(OCc3c(F)cccc3F)cc(Cl)cn2c1C(=O)NCC1CCCCN1 (racemic) [Example 118, rac-6-chloro-8-[(2,6-difluorobenzyl)oxy]-2-methyl-N-(piperidin-2-ylmethyl)imidazo[1,2-a]-pyridine-3-carboxamide], the “MEC (minimal effective concentration)” value is reported as 1.00 µM. Cc1cc(OCc2c(F)cccc2F)c2nc(C)c(C(=O)NCC(C)(N)C3CC3)n2c1 (racemic) [Example 259, rac-N-(2-Amino-2-cyclopropylpropyl)-8-[(2,6-difluorobenzyl)oxy]-2,6-dimethylimidazo[1,2-a]-pyridine-3-carboxamide] was tested, and the “MEC (minimal effective concentration)” value was 0.03 µM. Cc1nc2c(OCc3c(F)cccc3F)cccn2c1C(=O)NC1CCNc2ccc(C(F)(F)F)cc21 (single isomer, unassigned; ent-8) [Example 112, ent-8-[(2,6-difluorobenzyl)oxy]-2-methyl-N-[6-(trifluoromethyl)-1,2,3,4-tetrahydroquinolin-4-yl]imidazo[1,2-a]pyridine-3-carboxamide] was tested, and the “MEC (minimal effective concentration)” value was 0.10 µM. Cc1cc(OCc2c(F)cccc2F)c2nc(C)c(C(=O)NCC(N)CC(F)(F)F)n2c1 (single isomer, unassigned) [Example 129, ent-N-(2-Amino-4,4,4-trifluorobutyl)-8-[(2,6-difluorobenzyl)oxy]-2,6-dimethylimidazo[1,2-a]-pyridine-3-carboxamide] was tested, and the “MEC (minimal effective concentration)” value was 0.10 µM. In the case of Cc1nc2c(OCc3c(F)cccc3F)cccn2c1C(=O)NC(CN)CC(C(F)(F)F)C(F)(F)F (single isomer, unassigned; enantiomer a) [Example 7, ent-N-[1-Amino-5,5,5-trifluoro-4-(trifluoromethyl)pentan-2-yl]-8-[(2,6-difluorobenzyl)oxy]-2-methylimidazo[1,2-a]pyridine-3-carboxamide (Enantiomer A)], the “MEC (minimal effective concentration)” value is reported as 1.00 µM. Cc1nc2c(OCc3c(F)cccc3F)cccn2c1C(=O)N[C@H](C)CN1CCOCC1 [Example 170, 8-[(2,6-difluorobenzyl)oxy]-2-methyl-N-[(2R)-1-(morpholin-4-yl)propan-2-yl]imidazo[1,2-a]-pyridine-3-carboxamide] was tested, and the “MEC (minimal effective concentration)” value was 3.00 µM. In the case of CCC(C)(N)CNC(=O)c1c(C)nc2c(OCc3c(F)cccc3F)cccn12 (racemic) [Example 254, rac-N-(2-Amino-2-methylbutyl)-8-[(2,6-difluorobenzyl)oxy]-2-methylimidazo[1,2-a]pyridine-3-carboxamide], the “MEC (minimal effective concentration)” value is reported as 0.30 µM. In the case of Cc1cc(OCc2c(F)cccc2F)c2nc(C)c(C(=O)NC3CNCC3C(F)(F)F)n2c1 (mixture of isomers) [Example 313, 8-[(2,6-Difluorobenzyl)oxy]-2,6-dimethyl-N-[4-(trifluoromethyl)pyrrolidin-3-yl]imidazo[1,2-a]pyridine-3-carboxamide (mixture of stereoisomers)], the “MEC (minimal effective concentration)” value is reported as 0.30 µM. Cc1nc2c(OCC3CCCCC3)cccn2c1C(=O)NC(CN)c1ccc(Cl)cc1 (racemic) [Example 43, rac-N-[2-Amino-1-(4-chlorophenyl)ethyl]-8-(cyclohexylmethoxy)-2-methylimidazo[1,2-a]-pyridine-3-carboxamide] was tested, and the “MEC (minimal effective concentration)” value was 1.00 µM. With Cc1nc2c(OCc3c(F)cccc3F)cccn2c1C(=O)NCCNCC(F)F [Example 169] the “MEC (minimal effective concentration)” value was 1.65 µM. With Cc1nc2c(OCc3c(F)cccc3F)cccn2c1C(=O)NC(CN)CC(F)(F)F (racemic) [Example 2, rac-N-(1-Amino-4,4,4-trifluorobutan-2-yl)-8-[(2,6-difluorobenzyl)oxy]-2-methylimidazo[1,2-a]-pyridine-3-carboxamide] the “MEC (minimal effective concentration)” value was 0.65 µM. With Cc1nc2c(OCc3c(F)cccc3F)cccn2c1C(=O)N[C@@H](C)CN1CCOCC1 [Example 171, 8-[(2,6-difluorobenzyl)oxy]-2-methyl-N-[(2S)-1-(morpholin-4-yl)propan-2-yl]imidazo[1,2-a]-pyridine-3-carboxamide] the “MEC (minimal effective concentration)” value was 1.00 µM. For Cc1cc(OCc2c(F)cccc2F)c2nc(C)c(C(=O)NC3CCNC(C(F)(F)F)C3)n2c1 (racemic) [Example 302, rac-8-[(2,6-difluorobenzyl)oxy]-2,6-dimethyl-N-[2-(trifluoromethyl)piperidin-4-yl]imidazo[1,2-a]pyridine-3-carboxamide], the “MEC (minimal effective concentration)” value was 0.10 µM. Cc1cc(OCc2c(F)cccc2F)c2nc(C)c(C(=O)NCC(C)(N)CO)n2c1 (single isomer, unassigned; enantiomer a) [Example 268, ent-N-(2-Amino-3-hydroxy-2-methylpropyl)-8-[(2,6-difluorobenzyl)oxy]-2,6-dimethylimidazo-[1,2-a]pyridine-3-carboxamide (Enantiomer A)] was tested, and the “MEC (minimal effective concentration)” value was 0.55 µM. In the case of Cc1nc2c(OCc3c(F)cccc3F)cccn2c1C(=O)NC(CN)c1ccccc1 (racemic) [Example 16, rac-N-(2-Amino-1-phenylethyl)-8-[(2,6-difluorobenzyl)oxy]-2-methylimidazo[1,2-a]pyridine-3-carboxamide dihydrochloride], the “MEC (minimal effective concentration)” value is reported as 0.30 µM. Cc1cc(OCc2c(F)cccc2F)c2nc(C)c(C(=O)NC3CC(C)(C)C3N)n2c1 (mixture of isomers) [Example 358, N-(2-amino-3,3-dimethylcyclobutyl)-8-[(2,6-difluorobenzyl)oxy]-2,6-dimethylimidazo[1,2-a]pyridine-3-carboxamide Formate (Isomer Mixture)] was tested, and the “MEC (minimal effective concentration)” value was 0.30 µM. With Cc1nc2c(OCc3c(F)cccc3F)cccn2c1C(=O)NC(CN1CCOCC1)c1ccccc1 (single isomer, unassigned; ent-8) [Example 183, ent-8-[(2,6-Difluorobenzyl)oxy]-2-methyl-N-[2-(morpholin-4-yl)-1-phenylethyl]imidazo[1,2-a]-pyridine-3-carboxamide] the “MEC (minimal effective concentration)” value was 1.00 µM. With COc1cccc(C(N)CNC(=O)c2c(C)nc3c(OCc4c(F)cccc4F)cc(C)cn23)c1 (racemic) [Example 378, rac-N-[2-amino-2-(3-methoxyphenyl)ethyl]-8-[(2,6-difluorobenzyl)oxy]-2,6-dimethylimidazo[1,2-a]pyridine-3-carboxamide] the “MEC (minimal effective concentration)” value was 1.00 µM. With Cc1cc(OCc2c(F)cccc2F)c2nc(C)c(C(=O)NCCN3C[C@@H](C)O[C@@H](C)C3)n2c1 [Example 167, 8-[(2,6-difluorobenzyl)oxy]-N-{2-[(2R,6S)-2,6-dimethylmorpholin-4-yl]ethyl}-2,6-dimethyl-imidazo[1,2-a]pyridine-3-carboxamide] the “MEC (minimal effective concentration)” value was 1.00 µM. With Cc1nc2c(OCc3c(F)cccc3F)cc(Cl)cn2c1C(=O)NCC(C)(N)CC(C)C (single isomer, unassigned) [Example 227, ent-N-(2-Amino-2,4-dimethylpentyl)-6-chloro-8-[(2,6-difluorobenzyl)oxy]-2-methylimidazo[1,2-a]pyridine-3-carboxamide] the “MEC (minimal effective concentration)” value was 0.30 µM. In the case of Cc1nc2c(OCc3c(F)cccc3F)cccn2c1C(=O)NCC(N)C(C)C (single isomer, unassigned) [Example 229, ent-N-(2-Amino-3-methylbutyl)-8-[(2,6-difluorobenzyl)oxy]-2-methylimidazo[1,2-a]pyridine-3-carboxamide], the “MEC (minimal effective concentration)” value is reported as 1.00 µM. For Cc1nc2c(OCc3c(F)cccc3F)cccn2c1C(=O)NC1CC(C)(C)NC(C)(C)C1 [Example 82, 8-[(2,6-Difluorobenzyl)oxy]-2-methyl-N-(2,2,6,6-tetramethylpiperidin-4-yl)imidazo[1,2-a]-pyridine-3-carboxamide], the “MEC (minimal effective concentration)” value was 0.20 µM.
